Test results from patent US20040133938A1, “Use of lipoic acid in plant culture media” (priority 2002, published 2004).

How the values were obtained:
[1] = system: potato stem explants, cultivar Ranger Russet; assay: Potato Agrobacterium transformation with glyphosate selection; format: cell-based; conditions: for #rooted / shoots: 400 explants; for % TE (transformation efficiency) / % escape: potato
Experimental: This Example describes the use of lipoic acid in an Agrobacterium-based potato transformation protocol. Five days prior to inoculation, Agrobacterium containing the transformation vector of interest were streaked on a fresh LBssck plate (see media descriptions in Example 1) from the frozen glycerol stock, grown at about 28° C. for 3-4 days and stored in the refrigerator. About 20-22 hours before inoculation, 50 mL of liquid LBssck media (see media descriptions in Example 1) were dispensed into a 250-mL sterile flask. Using a sterile bacteriological loop, one loopful of bacteria from the LBssck plate was inoculated and agitated in the liquid LBssck. The 250-mL flasks were shaken at 25° C. overnight at medium to high speed. On inoculation day, 45 mL of MSO (4.4 g/L MS salts, 2 mL/L, Gamborg's B5 salts, 30 g/L sucrose) were dispensed into a 250 mL sterile flask. Using a sterile 5 mL pipette, 5 mL of the suspension was removed and dispensed into the flask containing the 45 mL of MSO and then agitated. The desired O.D. used for Agrobacterium transformation in potato was O.D.660=0.1.
The stock plant material to be used was collected from the growth chamber (16-hour light, 20° C.). The meristem was excised from the stock plants, and the cut end was placed in fresh PM (see media descriptions below) media, with ten meristems per plantcon. The leaves were removed from the potato stems by either cutting with a scalpel or pinching them off with forceps. After removing all the leaves in the plantcon, the stems were excised near the base and placed in an empty, sterile plantcon containing MSO. During this process, the plantcon(s) containing stems were kept closed except when adding more stems.
On the day of the inoculation, the stems were cut into 7 mm sections using a sterile scalpel and forceps. A 1/10 Agrobacterium solution was prepared by pipetting 4 mL of the Agrobacterium culture into 36 mL of MSO. The 1/10 agro solution was poured into the respective plates and swirled gently. A small amount of MSO was dispensed into the regeneration tissue and swirled. It was incubated for 15 min.
After 15 minutes, the Agrobacterium solution was removed with a vacuum aspirator. Using a sterile scoopula, the explants were scooped and spread onto the coculture plates with a piece of sterile 8.5 cm Whatman filter paper placed in the middle, about 100 explants per plate. The plates were placed in a bag and stored in a warm room ( 16/8 hour light, 19° C.) for two days.
After the two-day co-culture period, explants were placed on the appropriate selection media corresponding to the selectable marker provided in the transformation vector.
The explants were placed on the Z1 nonselection media at 20 explants per plate. The plates were placed in a bag and stored in a warm room (16-hour light, 19° C.). The glyphosate constructs were transferred to selection medium in 3 days.
In three days, the explants were transferred to Z1 glyphosate selection media at 20 explants per plate. The plates are bagged and placed in the warm room for one week.
After one week, the explants that were on Z1 glyphosate media were transferred to Z2 glyphosate media at 20 explants per plate. The plates were bagged and placed back in the warm room for 4 weeks. They remained on-this selection media for four weeks.
After two weeks, the experiment was checked for any shoots at this point. Shoots that were originating directly from the callusing end of the explant were excised. The shoots were placed on rooting media containing either kanamycin or glyphosate depending upon the selection used in the experiment and placed in the growth chamber. These were checked for rooting in two weeks. Any that were rooting were cut into tubes. This process was repeated after 2 more weeks. Any non-rooting plants were discarded after 4 weeks.
The lipoic acid study was conducted using the glyphosate transformation protocol as outlined above. […]

[2] = system: cotton hypocotyl explants; assay: Cotton transformation: embryogenic callus formation, lipoic acid in UMSEL media; format: cell-based; conditions: average from 3 experiments
Experimental: Cotton seed was washed in 2 teaspoons of detergent in 700-800 mL of sterile water for 10 minutes. Seed was then soaked in fungicide solution (0.6 g benlate, 0.6 g captan per 100 mL sterile water) for 10 min, drained, but not rinsed. Seed was imbibed for 30 minutes in 800 mL of 50% Clorox with 3 drops of Tween-20 and then rinsed 3 times with sterile water. Seed was spread in a sterile phytatray containing 1/2 MS plus 1% glucose media at a density of approximately 20 seeds per tray. Seeds were germinated in the dark at 28° C. for 7-10 days.
Agrobacterium was prepared by streaking a solid LBssck plate from frozen stock and incubating at 28° C. for 2 days. Two mL of liquid LBssck was inoculated with a single colony from the plate and grown overnight at 28° C. Culture is diluted 1:10 with fresh LBssck and cultured overnight at 28° C. The cells were spun down, the supernatant was poured off, cells were washed with MSO media and then resuspended in 20 mL of MSO.
Explants were harvested by cutting off the cotyledons and then making a cut approximately 4 to 6 cm below the cotyledon. Hypocotyl sections were placed in MSO media and then cut into 0.5 to 1 cm pieces.
Twenty mL of Agrobacterium broth was added to 100 to 500 cut explant sections and allowed to soak for 20 minutes. Explants were moved to co-culture medium (TrCO; see media descriptions below), covered with a plastic bag and co-cultured at room temperature for 2 days. After co-culture, explants were moved to UMSEL (1) media (with kanamycin or glyphosate selection), parafilmed and cultured in the light ( 16/8 photoperiod) at 28° C. for 4 weeks. Tissue was then transferred to fresh UMSEL (2) media containing selection in the same culture conditions for an additional 4 weeks.
Independent calli that had formed were then moved to UMO(1) containing selection, parafilmed and cultured in the dark at 28° C. for 8 weeks. After 8 weeks, tissue was transferred to fresh UMO(2) containing selection, parafilmed, and cultured in the dark for an additional 8 weeks. Good embryogenic callus was moved to TRP embryo maturation media, parafilmed and cultured in the dark at 28° C. Embryogenic callus was subcultured to fresh TRP media every 4 weeks until somatic embryos formed and were moved to SHSU embryo germination media. Once on parafilmed SHSU plates, the shoots were placed in the light at 28° C. and subcultured every four weeks until roots began to form. When healthy roots and leaves were present, the shoots were moved to SHSU media in sundae cups and eventually to soil.

[3] = 8 μM lipoic acid, listed as Lipoic acid
[4] = 9 μM lipoic acid, listed as Lipoic acid
[5] = 5 μM lipoic acid for 8 weeks in UMSEL media
[6] = 10 μM lipoic acid for 8 weeks in UMSEL media
[7] = 50 μM lipoic acid for 8 weeks in UMSEL media
[8] = 100 μM lipoic acid for 8 weeks in UMSEL media

O=C(O)CCCCC1CCSS1 (stereo not drawn) [lipoic acid, 1,2-dithiolane-3-pentanoic acid]
#rooted ([1]; 6 μM lipoic acid): 18
shoots ([1]; 6 μM lipoic acid): 27
% TE (transformation efficiency) ([1]; 6 μM lipoic acid): 4.5%
% escape ([1]; 6 μM lipoic acid): 33.0%
#rooted ([1]; 7 μM lipoic acid): 16
shoots ([1]; 7 μM lipoic acid): 25
% TE (transformation efficiency) ([1]; 7 μM lipoic acid): 4.0%
% escape ([1]; 7 μM lipoic acid): 36.0%
#rooted ([1]; 8 μM lipoic acid): 75
shoots ([1]; 8 μM lipoic acid): 89
% TE (transformation efficiency) ([1]; 8 μM lipoic acid): 19.0%
% escape ([1]; 8 μM lipoic acid): 16.0%
% TE (transformation efficiency) [1, 3]: 19%
% escape [1, 3]: 16%
#rooted ([1]; 9 μM lipoic acid): 70
shoots ([1]; 9 μM lipoic acid): 89
% TE (transformation efficiency) ([1]; 9 μM lipoic acid): 18.0%
% escape ([1]; 9 μM lipoic acid): 21.0%
% TE (transformation efficiency) [1, 4]: 18%
% escape [1, 4]: 21%
increase in transformation efficiency ([1]; lipoic acid at 8 μM and 9 μM vs control): sixfold increase
effect on transformation efficiency and escapes ([1]; lipoic acid at 6 and 7 μM): little effect
Frequency (%) of embryogenic callus formation [2, 5]: 49.4%
Putative embryogenic calli [2, 5]: 132
Frequency (%) of embryogenic callus formation [2, 6]: 31.4%
Putative embryogenic calli [2, 6]: 88
Frequency (%) of embryogenic callus formation [2, 7]: 61.2%
Putative embryogenic calli [2, 7]: 120
Frequency (%) of embryogenic callus formation [2, 8]: 56.6%
Putative embryogenic calli [2, 8]: 107
